Experimental data reported in patent US20250332212A1, “METHOD FOR TREATING OR PREVENTING ALOPECIA” (Suzhou Mingren Pharmaceutical Biotechnology Co., Ltd., priority 2024, published 2025).

Assays:
type II 5α-reductase = type II 5α-reductase (Homo sapiens, UniProt P31213); conditions: in serum and scalp; cited from earlier work
[1] = background statement; cited from earlier work
[2] = test system: TP-induced AGA model mice; test: TP-induced AGA model, Animal model III (specific inhibition of SP1 by MTA); assay type: in vivo, C57BL/6J male mice; conditions: MTA 0.3 mg/kg/d intraperitoneally with 1% JP1
Text: To verify that JP1 promotes AGA follicle regeneration through the activation of the Wnt/β-catenin signaling pathway via the MAPK/E2F1/SP1 signaling axis, the example constructed a mouse model of AGA with specific inhibition of SP1 (FIG. 15A). The specific experimental details are described according to “Animal model III” of “1. TP-induced AGA model” in “Experimental Methods”.
To further confirm that JP1 promotes the growth of hair follicles on the back of AGA model mice through the SP1-regulated Wnt/β-catenin signaling pathway at the histomorphometric level, H&E staining was performed on the skin tissues of the model mice of Example 15 at different time points (days 4, 8, and 12 post-intervention).
The mice used in this study were 5-week-old C57BL/6J male mice (18-20 g), which were purchased from Jiangsu Jicui Pharmachem Biotechnology Co. All the animals used in the experiments were housed in the SPF-level environment of the Medical Laboratory Animal Center of Nanjing Medical University, and the relevant animal experimental operations were approved by the Animal Ethics Committee of Nanjing Medical University. The control group was left untreated, and the other groups were injected with TP subcutaneously on their backs every day. Two weeks later, the hair on the backs of the mice was shaved with an electric razor, covering an area of 2 cm×4 cm, and then the residual hair was removed with a hair removal cream. The subcutaneous injections of TP on the shaved backs of the mice in the AGA model was continued until the end of the experimental period, and the administration of TP in each of the treatment groups was begun on the 1st day of the dehairing process.
In addition to the normal control group (denoted as control) n=20, all mice injected subcutaneously with TP were randomly divided into the following groups (n=20): the model group (denoted as model), the 1% JP1 (skin-coated), and the 1% JP1+MTA group. […] MTA was administered at a dose of 0.3 mg/kg/d, qd, intraperitoneally, 100 μL/dose.
Mice were weighed every two days during the experiment. Skin color was assessed against skin score charts. The mice were euthanized and treated at the end of the experiment, and skin tissues were taken from the dorsal decorticated area of the mice. Some of the tissues were fixed with 4% paraformaldehyde solution and then paraffin sections were made for H&E or immunofluorescence staining, etc., and some of the tissues were stored in the refrigerator at −80° C. for relevant molecular expression assays (qRT-PCR, Western Blot, IP, etc.).
8.1) Sampling and fixation: After the experiment, skin tissue was taken from the depilated area on the back of the mouse and placed in a 10 mL EP tube. 4% paraformaldehyde was added to the EP tube, and all tissues were immersed to denature and coagulate the proteins of the skin tissue. The original morphology and structure of the cells were maintained.
8.6) H&E staining: the sections pretreated in distilled water were put into aqueous hematoxylin solution for a few minutes for staining. The color was separated in acid water and ammonia for a few seconds each. After rinsing in running water for 1 h, the sections were placed in distilled water for a few moments. The sections were dehydrated in 70% and 90% alcohol for 10 min each, and stained in alcoholic eosin stain for 2-3 min.

[3] = test system: SP1, Wnt10a, Wnt10b and β-catenin; test: Immunoblotting of SP1 and downstream molecules in skin, Animal model III; assay type: in vivo, mouse; conditions: dorsal skin
Method: 4.1) Protein extraction: 70 mg of skin tissue was placed in a 1.5 mL centrifuge tube, and 500 μL of tissue lysate RIPA containing protease inhibitor and phosphatase inhibitor was added. The tissue was placed on an ice box, pulverized by a tissue grinder, and then ultrasonically crushed to obtain a tissue suspension, which was then placed in a rotary windmill at 4° C. to be lysed for 2 h. The centrifuge was set at 12,000×g, 4° C., centrifuged for 15 min, and the supernatant was collected as the total protein.
5.1) Heating of protein samples: the total protein content of each tissue was 50 μg; calculate the volume of a corresponding protein sample, make up the volume with saline to 16 μL, then add 4 μL of 5×SDS sampling buffer, heat at 100° C. for 5 min, and then cool at room temperature and store at −20° C.
5.7) Primary antibody incubation: the cut protein bands were placed into the corresponding primary antibody and incubated at 4° C. on a shaker overnight, washed with TBST 3 times for 10 min/time.

type II 5α-reductase, sequence (P31213 whole entry): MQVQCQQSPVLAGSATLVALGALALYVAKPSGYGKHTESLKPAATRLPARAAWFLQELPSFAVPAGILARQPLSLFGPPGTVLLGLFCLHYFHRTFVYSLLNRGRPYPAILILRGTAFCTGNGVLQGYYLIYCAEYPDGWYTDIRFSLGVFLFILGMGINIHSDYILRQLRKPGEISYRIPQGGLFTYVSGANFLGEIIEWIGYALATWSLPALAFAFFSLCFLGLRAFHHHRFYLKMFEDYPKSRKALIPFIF

CC(C)(C)NC(=O)[C@H]1CC[C@H]2[C@@H]3CC[C@H]4NC(=O)C=C[C@]4(C)[C@H]3CC[C@]12C [finasteride]
reduction of double hydrogen testosterone (DHT) (type II 5α-reductase): more than 60%

Nc1cc(N2CCCCC2)nc(N)[n+]1[O-] [minoxidil]
adverse reactions [1]: itchiness of the scalp, dermatitis, and localized hirsutism

Mithramycin A [MTA, reference compound]
effect of SP1 inhibition on hair follicle growth promotion by JP1 [2]: blocked the hair follicle growth-promoting effect of JP1 | effect of MTA on JP1-induced expression of SP1 downstream molecules [3]: block the effect of JP1 on the expression of SP1 downstream molecules
